# Data taken from US9260760B2, “Method for determining complete response to anticancer therapy” (Board of Regents, The University of Texas System, priority 2012, dated 2016).
# Values joined by “and” are separate entries in the source; they are usually repeats but may differ in a detail not shown here. Equal values may be shown once.
# Tested on: metastatic colorectal cancer
# Experiment: Study 1: retrospective cohort, XCEL with or without radiation; tumor response (RECIST), PFS and OS
# Type: in vivo, human
# Excerpt: The institutional review board of The University of Texas M. D. Anderson Cancer Center approved this retrospective expanded cohort study. Between October 2000 and December 2003, seventy-four patients with metastatic colorectal cancer received capecitabine with concurrent celecoxib (n=66), or rofecoxib (n=2), ibuprofen (n=2), sulindac (n=2) and high dose aspirin (n=2).
# The radiation was delivered to the target area using 18 MV photons with 3-D conformal planning technique. The dose of radiation was either 35-40 Gy (n=18) or >45 Gy (n=15) with dose radiation missing in one patient. […] Celecoxib was continued with capecitabine to prevent HFS and to improve survival.
# All patients were subjected to routine clinical examinations, laboratory analyses, and computed tomography. Patients were seen weekly during radiotherapy if treated on site or every 6-9 weeks with physical examinations, laboratory tests, and computed tomography. Treatment-related toxicity was graded using the National Institutes of Health's Common Toxicities Criteria (CTC) version 2.0. Tumor responses were evaluated using RECIST criteria. Complete response was defined as complete radiographic disappearance of measurable or evaluable disease or stable, minimal radiographic findings; partial response was defined as reduction of the longest dimension of measurable disease by at least 50%; stable disease was defined as reduction of the longest dimension by less than 25%; These responses or stable must be confirmed at least by 3 months interval evaluation; Progressive disease was defined as growth of the tumor by more than 25% in the longest dimension or development of new lesions. Overall response rate was defined as the sum of the complete and partial response rates and the tumor control rate was defined as the sum of overall response rates with stable disease rates. The date of death was ascertained through the cancer registry or through a search of patients' social security numbers in the Social Security Death Index (ssdi.genealogy.rootsweb.com). The cutoff point for collection of data was April 2004.
# Continuous variables were summarized using the mean (±standard deviation) or the median (range). […] Progression-free and overall survival distributions were summarized using the method of Kaplan and Meier. Differences in progression-free and overall survival by subgroup were analyzed using the log-rank test. Multivariate models of predictors of progression-free survival and overall survival were evaluated using the proportional hazards (Cox) regression model. P<0.05 was considered statistically significant.
# [1] = First-line responders, no radiation (n = 5)
# [2] = First-line responders, radiation (n = 4)
# [3] = First-line, no radiation (n = 14)
# [4] = Second-line, no radiation (n = 13)
# [5] = Second-line, radiation (n = 20)
# [6] = second-line XCEL, progressed on 5FU and irinotecan (n=28)
# [7] = second-line with 9 first-line responding patients included
# [8] = second-line, irinotecan refractory
compound,measurement,setting,value
Cc1ccc(-c2cc(C(F)(F)F)nn2-c2ccc(S(N)(=O)=O)cc2)cc1 [XCEL],"Overall Survival, Median (95% CI)",All,22.0 (17.8-31.5) months
same,"Progression-free survival, Median (95% CI)",All,8.3 (7.0-11.0) months
same,"Overall Survival, Median (95% CI)",CEA >3.0 ng/ml,20.0 (16.2-26.9) months
same,"Progression-free survival, Median (95% CI)",CEA >3.0 ng/ml,7.1 (5.7-9.4) months
same,"Overall Survival, Median (95% CI)",CEA ≦3.0 ng/ml,31.5 (18.0-NR) months
same,"Progression-free survival, Median (95% CI)",CEA ≦3.0 ng/ml,16.8 (9.4-NR) months
same,Complete response,[1],4 (80) No. of patients (%)
same,Overall response,[1],4 (80) No. of patients (%)
same,Partial response,[1],0 (0) No. of patients (%)
same,Stable disease,[1],0 (0) No. of patients (%)
same,Tumor control,[1],4 (80) No. of patients (%)
same,Complete response,[2],3 (75) No. of patients (%)
same,Overall response,[2],4 (100) No. of patients (%)
same,Partial response,[2],1 (0) No. of patients (%)
same,Stable disease,[2],0 (0) No. of patients (%)
same,Tumor control,[2],4 (100) No. of patients (%)
same,Complete response,[3],1 (7) No. of patients (%)
same,Overall response,[3],4 (29) No. of patients (%)
same,Partial response,[3],3 (21) No. of patients (%)
same,Stable disease,[3],8 (57) No. of patients (%)
same,Tumor control,[3],12 (86) No. of patients (%)
same,Complete response,"First-line, radiation (n = 10)",3 (30) No. of patients (%)
same,Overall response,"First-line, radiation (n = 10)",4 (40) No. of patients (%)
same,Partial response,"First-line, radiation (n = 10)",3 (20) No. of patients (%)
same,Stable disease,"First-line, radiation (n = 10)",4 (40) No. of patients (%)
same,Tumor control,"First-line, radiation (n = 10)",8 (80) No. of patients (%)
same,"Progression-free survival, Median (95% CI)",LDH >618,6.4 (4.3-7.2) months
same,"Progression-free survival, Median (95% CI)",LDH ≦618,14.5 (9.2-26.3) months
same,"Overall Survival, Median (95% CI)",LDH ≦618 (normal level of LDH),31 months and 31.5 (23.6-NR) months
same,"Overall Survival, Median (95% CI)",No Radiation (RT),20.0 (16.6-22.8) months
same,"Progression-free survival, Median (95% CI)",No Radiation (RT),7.2 (4.8-9.4) months
same,Complete response,No radiation (n = 32),4 (13) No. of patients (%)
same,Overall response,No radiation (n = 32),10 (31) No. of patients (%)
same,Partial response,No radiation (n = 32),6 (19) No. of patients (%)
same,Stable disease (>4 months),No radiation (n = 32),13 (41) No. of patients (%)
same,Tumor control,No radiation (n = 32),23 (72) No. of patients (%)
same,"Overall Survival, Median (95% CI)",No surgery,19.3 (16.2-26.9) months
same,"Progression-free survival, Median (95% CI)",No surgery,7.8 (6.4-9.4) months
same,"Progression-free survival, Median (95% CI)",RT <45 Gy,8.0 (6.4-14.6) months
same,"Overall Survival, Median (95% CI)",RT ≧45 Gy,21.8 (17.6-NR) months
same,"Progression-free survival, Median (95% CI)",RT ≧45 Gy,21.2 (7.1-21.2) months
same,Complete response,Radiation (n = 34),9 (26) No. of patients (%)
same,Overall response,Radiation (n = 34),15 (44) No. of patients (%)
same,Partial response,Radiation (n = 34),6 (18) No. of patients (%)
same,Stable disease (>4 months),Radiation (n = 34),12 (35) No. of patients (%)
same,Tumor control,Radiation (n = 34),27 (79) No. of patients (%)
same,Complete response,[4],0 No. of patients (%)
same,Overall response,[4],2 (15) No. of patients (%)
same,Partial response,[4],2 (15) No. of patients (%)
same,Stable disease,[4],5 (38) No. of patients (%)
same,Tumor control,[4],7 (54) No. of patients (%)
same,Complete response,[5],2 (10) No. of patients (%)
same,Overall response,[5],7 (35) No. of patients (%)
same,Partial response,[5],5 (25) No. of patients (%)
same,Stable disease,[5],8 (40) No. of patients (%)
same,Tumor control,[5],15 (75) No. of patients (%)
same,"Progression-free survival, Median (95% CI)",Surgery,16.8 (8.3-31.4) months
same,patients achieving complete response,after first-line response to irinotecan-based therapy,7 of 9
same,second line overall response rate,all 9 first-line irinotecan responders included,40.5%
same,complete response (CR),all 66 patients,20%
same,overall response rate,all 66 patients,38%
same,partial response (PR),all 66 patients,18%
same,tumor control rate,all 66 patients,76%
same,median PFS,first-line XCEL,8.3 months
same,median overall survival,first-line XCEL,26.9 months
same,Stable disease (%),first-line XCEL (n=24),50%
same,complete response (CR),first-line XCEL (n=24),17%
same,overall response rate,first-line XCEL (n=24),34% and 33%
same,tumor control rate,first-line XCEL (n=24),84%
same,complete responses,"nineteen of 66 patients, XCEL alone or with radiation",29%
same,complete response by site,nodal metastasis,51%
same,complete response by site,peritoneum,40%
same,Stable disease (%),second-line XCEL (n=28),50%
same,complete response (CR),[6],7%
same,overall response rate,[6],25%
same,tumor control rate,[6],68%
same,median overall survival,[7],19.3 months
same,median progression free survival,[7],8.3 months
same,median PFS,[8],6.7 months
same,median overall survival,[8],17.8 months and 17.6 months
